{"source": "patent US20250282799A1", "about": "“SUBSTITUTED PYRIDO[4,3-d]PYRIMIDINES AS KRAS MODULATORS” (Alterome Therapeutics, Inc., priority 2023, published 2025)", "key": {"[1]": {"assay": "Pharmacokinetic evaluation, single dosing (oral and intravenous) in rats", "assay_type": "in vivo, male Sprague-Dawley rats", "set-up": "unit not given here", "details": "rat, plasma", "procedure": "Pharmacokinetic profile for test compound was measured by single dosing in male Sprague-Dawley rats. Animal weights were typically over 200 grams, and animals were allowed to acclimate to their new environment for at least 3 days prior to the initiation of any studies. One set of animals was dosed intravenous with test compound, 2 mg/kg in 20% PEG400, 10% HS-15 Solutol, 70% 50 mM citrate buffer (pH 4.0). Intravenous dosing solution concentration was 1.0 mg/mL. Time of blood sampling was 5 minutes, 15 minutes, 30 minutes, 1 hour, 2 hours, 4 hours, 8 hours, and 24 hours following intravenous dosing. Another set of animals was dosed orally with test compound, 30 mg/kg in 20% PEG400, 10% HS-15 Solutol, 70% 50 mM citrate buffer (pH 4.0). Oral dosing solution concentration was 3.0 mg/mL. Time of blood sampling was 15 minutes, 30 minutes, 1 hour, 2 hours, 4 hours, 8 hours, and 24 hours following oral dosing. Blood samples (˜0.2 mL/sample) were collected via jugular vein and placed in tubes containing Heparin-Na. The blood samples in tubes were mixed and then placed on wet ice prior to centrifugation for plasma. The blood samples were centrifuged at 4000 g for 5 minutes at 4° C. to obtain plasma. The obtained plasma was separated and stored frozen at approximately −80° C.\nAll the plasma samples were analyzed using a Shimadzu (DGU-405) HPLC with an API 6500+MS/MS system following the manufacturer's instructions. All the analytes were detected with positive-mode electrospray ionization (ES+). A standard curve for each test compound was generated and used to measure test compound concentrations in the rat plasma samples. Based on the time course sampling, an area under the curve (AUC) was calculated for the oral group and intravenous group. The percentage of rat bioavailability is calculated based on the equation shown below.\nwhere F is bioavailability, AUCPO is area under curve of oral dosing, AUCIV is area under curve of intravenous dosing, DoseIV is the intravenous dose and DosePO is the oral dose. The oral dosing for the experiments presented in Table 5 was performed at 10 mg/kg unless noted otherwise."}, "KRAS (G12V)/CRAF": {"target": "KRAS (G12V)/CRAF (Homo sapiens (Human), UniProt P01116, G12V)", "sequence (P01116-2 other isoform, or with tags, fused parts or gaps G12V)": "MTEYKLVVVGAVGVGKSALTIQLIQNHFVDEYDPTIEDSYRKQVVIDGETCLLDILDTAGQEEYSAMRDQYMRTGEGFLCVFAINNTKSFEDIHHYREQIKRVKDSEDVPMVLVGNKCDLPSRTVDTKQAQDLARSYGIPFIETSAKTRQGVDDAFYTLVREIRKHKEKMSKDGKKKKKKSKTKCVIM", "assay": "TR-FRET biochemical KRAS:CRAF protein:protein interaction assay, KRAS (G12V)", "assay_type": "binding", "details": "GMPPNP loaded Biotin-KRAS (G12V), FLAG CRAF RBD; read-out: TR-Fret_PPI KRAS (G12V)/CRAF IC50", "procedure,_shortened": "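Compound (10-point 3-fold series, 1% DMSO final) preincubated 30 min at room temperature with 20 nM biotin-KRAS mutant loaded with GMPPNP, in Hepes pH7.3 buffer with 5 mM MgCl2 and 10 uM GMP-PNP. Then 100 nM FLAG-CRAF RBD for 150 min, 1 nM Tb-anti-FLAG/5 nM SA-XL665 for 90 min; IC50 from normalized 665/620 ratio, 4-parameter fit.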"}}, "note": "pIC50: −log10 of the molar value.", "data": [{"smiles": "[2H]C([2H])(Oc1nc(N2CCCC[C@H]3[C@H](F)[C@H]32)c2cnc(-c3cc(N)cc4cc(F)c(F)c(C#C)c34)c(F)c2n1)[C@@]12CCCN1C[C@H](F)C2", "note": "[Example 16, 5-Ethynyl-6,7-difluoro-4-(8-fluoro-4-((1S,7R,8S)-8-fluoro-2-azabicyclo[5.1.0]octan-2-yl)-2-(((2R,7aS)-2-fluorotetrahydro-1H-pyrrolizin-7a(5H)-yl)methoxy-d2)pyrido[4,3-d]pyrimidin-7-yl)naphthalen-2-amine]", "values": [{"measurement": "IV (dose 2 mg/kg) (AUC/D) (h*mg/mL)", "setting": "[1]", "value": 718}, {"measurement": "PO (dose 10 mg/kg) (AUC/D) (h*mg/mL)", "setting": "[1]; oral", "value": 75}, {"measurement": "pIC50", "setting": "KRAS (G12V)/CRAF", "value": 7.25}]}, {"smiles": "[2H]C([2H])(Oc1nc(N2CCOC[C@H]3[C@H](F)[C@H]32)c2cnc(-c3cc(N)cc4cc(F)c(F)c(C#C)c34)c(F)c2n1)[C@@]12CCCN1C[C@H](F)C2", "note": "[Example 28, 5-Ethynyl-6,7-difluoro-4-(8-fluoro-4-((1S,7S,8S)-8-fluoro-5-oxa-2-azabicyclo[5.1.0]octan-2-yl)-2-(((2R,7aS)-2-fluorotetrahydro-1H-pyrrolizin-7a(5H)-yl)methoxy-d2)pyrido[4,3-d]pyrimidin-7-yl)naphthalen-2-amine]", "values": [{"measurement": "IV (dose 2 mg/kg) (AUC/D) (h*mg/mL)", "setting": "[1]", "value": 993}, {"measurement": "PO (dose 10 mg/kg) (AUC/D) (h*mg/mL)", "setting": "[1]; oral", "value": 141}, {"measurement": "pIC50", "setting": "KRAS (G12V)/CRAF", "value": 7.05}]}, {"smiles": "[2H]C([2H])(Oc1nc(N2CCCC[C@H]3[C@H](F)[C@H]32)c2cnc(-c3cc(N)cc4ccc(F)c(C#C)c34)c(F)c2n1)[C@@]12CCCN1C[C@H](F)C2", "note": "[Example 82, 5-Ethynyl-6-fluoro-4-(8-fluoro-4-((1S,7R,8S)-8-fluoro-2-azabicyclo[5.1.0]octan-2-yl)-2-(((2R,7aS)-2-fluorotetrahydro-1H-pyrrolizin-7a(5H)-yl)methoxy-d2)pyrido[4,3-d]pyrimidin-7-yl)naphthalen-2-amine]", "values": [{"measurement": "IV (dose 2 mg/kg) (AUC/D) (h*mg/mL)", "setting": "[1]", "value": 490}, {"measurement": "PO (dose 10 mg/kg) (AUC/D) (h*mg/mL)", "setting": "[1]; oral", "value": 115}, {"measurement": "pIC50", "setting": "KRAS (G12V)/CRAF", "value": 7.41}]}, {"smiles": "[2H]C([2H])(Oc1nc(N2CCOC[C@H]3[C@H](F)[C@H]32)c2cnc(-c3cc(N)cc4ccc(F)c(C#C)c34)c(F)c2n1)[C@@]12CCCN1C[C@H](F)C2", "note": "[Example 87, 5-Ethynyl-6-fluoro-4-(8-fluoro-4-((1S,7S,8S)-8-fluoro-5-oxa-2-azabicyclo[5.1.0]octan-2-yl)-2-(((2R,7aS)-2-fluorotetrahydro-1H-pyrrolizin-7a(5H)-yl)methoxy-d2)pyrido[4,3-d]pyrimidin-7-yl)naphthalen-2-amine]", "values": [{"measurement": "IV (dose 2 mg/kg) (AUC/D) (h*mg/mL)", "setting": "[1]", "value": 494}, {"measurement": "PO (AUC/D) (h*mg/mL), dose 30 mg/kg", "setting": "[1]; oral, dose 30 mg/kg", "value": 122}, {"measurement": "pIC50", "setting": "KRAS (G12V)/CRAF", "value": 7.22}]}]}
